In paper PMC7562955 (Nature Communications, 2020) one finds Kd data, which are given here for two molecules.

The test has as its target T1, TLR7 extracellular domain (Macaca mulatta, UniProt B3Y653, N167Q/N389Q/N488Q/N799Q).
T1 construct: Monkey (Macaca mulatta) TLR7 extracellular domain expression construct; protein A tag (C, cleaved yes); made in house; host or cells: Drosophila S2 cells
T1 sequence (B3Y653 with tags, fused parts or gaps N167Q/N389Q): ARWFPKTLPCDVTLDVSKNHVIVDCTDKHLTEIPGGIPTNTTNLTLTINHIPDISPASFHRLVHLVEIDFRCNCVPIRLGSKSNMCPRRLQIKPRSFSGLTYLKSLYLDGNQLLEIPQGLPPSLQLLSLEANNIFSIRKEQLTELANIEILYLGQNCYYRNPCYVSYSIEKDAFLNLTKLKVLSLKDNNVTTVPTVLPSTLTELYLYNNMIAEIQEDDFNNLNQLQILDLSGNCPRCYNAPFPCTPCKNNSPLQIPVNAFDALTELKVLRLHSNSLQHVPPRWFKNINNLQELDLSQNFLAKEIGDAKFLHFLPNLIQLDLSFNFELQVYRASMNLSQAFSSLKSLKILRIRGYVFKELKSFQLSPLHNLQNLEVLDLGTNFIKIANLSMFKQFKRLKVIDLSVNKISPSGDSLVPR
T1 sequence (B3Y653 with tags, fused parts or gaps N488Q/N799Q): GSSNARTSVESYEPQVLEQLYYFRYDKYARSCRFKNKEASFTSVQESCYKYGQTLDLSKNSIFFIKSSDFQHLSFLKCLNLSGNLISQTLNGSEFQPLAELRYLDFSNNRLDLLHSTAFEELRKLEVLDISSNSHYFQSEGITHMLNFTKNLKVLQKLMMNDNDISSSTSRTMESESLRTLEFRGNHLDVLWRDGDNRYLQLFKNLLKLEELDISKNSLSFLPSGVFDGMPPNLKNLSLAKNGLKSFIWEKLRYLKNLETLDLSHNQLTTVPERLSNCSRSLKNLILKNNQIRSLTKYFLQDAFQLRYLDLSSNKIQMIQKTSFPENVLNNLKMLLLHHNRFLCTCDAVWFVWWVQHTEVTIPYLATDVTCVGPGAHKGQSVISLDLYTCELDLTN
The experiment in a line: ITC titration to TLR7 recombinant protein. Type of test: binding, Monkey (Macaca mulatta). Particulars: pH 4.7; read-out: Dissociation constant KD. How it is done: The recombinant TLR7 proteins expressed in Drosophila S2 cells (Thermo Fisher Scientific) using Monkey (Macaca mulatta) TLR7 extracellular domain expression construct with N167Q, N399Q, N488Q and N799Q mutations and cleavable Z-loop and C-terminal protein A tag were prepared and were stored in a buffer containing 10 mM Tris-HCl pH 7.5 and 150 mM NaCl at concentrations of 10–15 mg ml^−1. Briefly, the purification steps included IgG affinity purification, the Z-loop and the protein A tag cleavage, and gel-filtration chromatography. Glycan-trimmed TLR7 proteins, expressed in the presence of 1.5 mg l^−1 kifunensine (Glycosyn) and treated by Endo Hf (New England Biolabs) were used for crystallization. Glycan-untrimmed proteins were used in ITC analysis, crosslinking assay, negative-staining EM and cryo-EM (200 kV microscopes) analyses. Glycan-trimmed TLR7 proteins with partially-uncleaved protein A tag were used for cryo-EM analysis using Tatan Krios (Supplementary Fig. 11).
ITC experiments (Fig. 2a) were conducted at 298 K in a final buffer condition of ~30 mM citrate-NaOH pH 4.7 or pH 5.7 (Hampton Research), 150 mM NaCl by using a MicroCal iTC200 (Malvern Panalytical). […]

With `CCOc1nc(N)c2nc(-c3cncc(F)c3)n(Cc3ccc(CN4C[C@@H]5C[C@H]4CN5C)cc3)c2n1` [Cpd-6], the Kd stood at 10 µM.

Turning to `CCOc1nc(C)c2nc(-c3cncc(F)c3)n(Cc3ccc(CN4C[C@@H]5C[C@H]4CN5C)cc3)c2n1` [Cpd-7], the Kd came to 7.4 µM.
